According to ChEMBL document CHEMBL5465560, “Selectivity Literature for EUbOPEN Chemogenomic Library” (2024):

Assays:
[1] = molecular target: Tyrosine-protein kinase FRK (Homo sapiens) (UniProt P42685); assay: Selectivity interaction (KinomeScan (DiscoverX)) EUB0000229b FRK; conditions: at 10 µM
[2] = tested on: Epidermal growth factor receptor (Homo sapiens), P00533 [G719C]; conditions: at 10 µM
[3] = molecular target: Serine/threonine-protein kinase OSR1 (Homo sapiens) (UniProt O95747); assay: Selectivity interaction (ActivX KiNativ screen (ex vivo kinase selectivity in human PBMCs)) EUB0001619a OXSR1; format: cell-based; conditions: PBMC, at 1 µM
Sequence of Serine/threonine-protein kinase OSR1 (Homo sapiens) (O95747 2-527 limits assumed): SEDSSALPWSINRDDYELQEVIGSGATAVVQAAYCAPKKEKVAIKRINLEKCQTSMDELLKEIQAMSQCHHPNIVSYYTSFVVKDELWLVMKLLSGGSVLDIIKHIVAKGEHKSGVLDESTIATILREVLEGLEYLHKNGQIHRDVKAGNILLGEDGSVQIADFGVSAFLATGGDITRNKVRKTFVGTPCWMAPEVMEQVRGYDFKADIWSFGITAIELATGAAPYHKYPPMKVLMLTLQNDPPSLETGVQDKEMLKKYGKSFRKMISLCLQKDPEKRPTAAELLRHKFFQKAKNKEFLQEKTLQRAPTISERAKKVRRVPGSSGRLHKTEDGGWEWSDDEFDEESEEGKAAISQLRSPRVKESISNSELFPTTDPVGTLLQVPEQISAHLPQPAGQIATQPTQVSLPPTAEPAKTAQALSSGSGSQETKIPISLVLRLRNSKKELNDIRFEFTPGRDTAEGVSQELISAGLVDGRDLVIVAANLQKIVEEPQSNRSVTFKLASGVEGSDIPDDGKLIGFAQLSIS

[4] = tested on: Tyrosine-protein kinase ABL1 (Homo sapiens), P00519 [Q252H]; assay: (§1) Selectivity interaction (KinomeScan (DiscoverX)) EUB0000607a ABL1; conditions: at 10 µM
[5] = molecular target: Tyrosine-protein kinase ABL1 (Homo sapiens, UniProt P00519); assay: as §1; conditions: at 10 µM
[6] = tested on: Tyrosine-protein kinase ABL1 (Homo sapiens), P00519 [M351T]; assay: as §1; conditions: at 10 µM
[7] = tested on: Tyrosine-protein kinase ABL1 (Homo sapiens), P00519 [F317L]; assay: as §1; conditions: at 10 µM
[8] = tested on: Tyrosine-protein kinase ABL1 (Homo sapiens), P00519 [F317I]; assay: as §1; conditions: at 10 µM
[9] = tested on: Tyrosine-protein kinase ABL1 (Homo sapiens), P00519 [H396P]; assay: as §1; conditions: at 10 µM
[10] = tested on: Tyrosine-protein kinase ABL1 (Homo sapiens), P00519 [T315I]; assay: as §1; conditions: at 10 µM
[11] = tested on: Tyrosine-protein kinase ABL1 (Homo sapiens), P00519 [Y253F]; assay: as §1; conditions: at 10 µM
[12] = tested on: Tyrosine-protein kinase ABL1 (Homo sapiens), P00519 [E255K]; assay: as §1; conditions: at 10 µM
[13] = molecular target: Mitogen-activated protein kinase 11 (Homo sapiens) (UniProt Q15759); assay: Selectivity interaction (ActivX KiNativ screen (kinase selectivity in THP-1 cell lysates)) EUB0000639a MAPK11; format: subcellular; conditions: lysate
Sequence of Mitogen-activated protein kinase 11 (Homo sapiens) (Q15759 whole entry): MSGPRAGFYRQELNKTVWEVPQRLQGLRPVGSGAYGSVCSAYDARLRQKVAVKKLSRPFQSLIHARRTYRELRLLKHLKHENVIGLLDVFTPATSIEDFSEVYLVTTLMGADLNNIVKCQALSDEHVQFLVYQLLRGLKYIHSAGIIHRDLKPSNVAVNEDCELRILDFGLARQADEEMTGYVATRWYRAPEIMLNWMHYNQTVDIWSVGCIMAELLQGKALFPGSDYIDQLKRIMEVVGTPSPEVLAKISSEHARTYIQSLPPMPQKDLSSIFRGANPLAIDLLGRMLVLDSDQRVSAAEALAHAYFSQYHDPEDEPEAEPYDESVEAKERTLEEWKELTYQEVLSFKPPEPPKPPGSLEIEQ

[14] = molecular target: T1, Mitogen-activated protein kinase kinase kinase 5 (Homo sapiens) (UniProt Q99683); assay: Selectivity interaction (ActivX KiNativ screen (kinase selectivity in THP-1 cell lysates)) EUB0000639a MAP3K5; format: subcellular; conditions: lysate
T1 sequence (whole entry): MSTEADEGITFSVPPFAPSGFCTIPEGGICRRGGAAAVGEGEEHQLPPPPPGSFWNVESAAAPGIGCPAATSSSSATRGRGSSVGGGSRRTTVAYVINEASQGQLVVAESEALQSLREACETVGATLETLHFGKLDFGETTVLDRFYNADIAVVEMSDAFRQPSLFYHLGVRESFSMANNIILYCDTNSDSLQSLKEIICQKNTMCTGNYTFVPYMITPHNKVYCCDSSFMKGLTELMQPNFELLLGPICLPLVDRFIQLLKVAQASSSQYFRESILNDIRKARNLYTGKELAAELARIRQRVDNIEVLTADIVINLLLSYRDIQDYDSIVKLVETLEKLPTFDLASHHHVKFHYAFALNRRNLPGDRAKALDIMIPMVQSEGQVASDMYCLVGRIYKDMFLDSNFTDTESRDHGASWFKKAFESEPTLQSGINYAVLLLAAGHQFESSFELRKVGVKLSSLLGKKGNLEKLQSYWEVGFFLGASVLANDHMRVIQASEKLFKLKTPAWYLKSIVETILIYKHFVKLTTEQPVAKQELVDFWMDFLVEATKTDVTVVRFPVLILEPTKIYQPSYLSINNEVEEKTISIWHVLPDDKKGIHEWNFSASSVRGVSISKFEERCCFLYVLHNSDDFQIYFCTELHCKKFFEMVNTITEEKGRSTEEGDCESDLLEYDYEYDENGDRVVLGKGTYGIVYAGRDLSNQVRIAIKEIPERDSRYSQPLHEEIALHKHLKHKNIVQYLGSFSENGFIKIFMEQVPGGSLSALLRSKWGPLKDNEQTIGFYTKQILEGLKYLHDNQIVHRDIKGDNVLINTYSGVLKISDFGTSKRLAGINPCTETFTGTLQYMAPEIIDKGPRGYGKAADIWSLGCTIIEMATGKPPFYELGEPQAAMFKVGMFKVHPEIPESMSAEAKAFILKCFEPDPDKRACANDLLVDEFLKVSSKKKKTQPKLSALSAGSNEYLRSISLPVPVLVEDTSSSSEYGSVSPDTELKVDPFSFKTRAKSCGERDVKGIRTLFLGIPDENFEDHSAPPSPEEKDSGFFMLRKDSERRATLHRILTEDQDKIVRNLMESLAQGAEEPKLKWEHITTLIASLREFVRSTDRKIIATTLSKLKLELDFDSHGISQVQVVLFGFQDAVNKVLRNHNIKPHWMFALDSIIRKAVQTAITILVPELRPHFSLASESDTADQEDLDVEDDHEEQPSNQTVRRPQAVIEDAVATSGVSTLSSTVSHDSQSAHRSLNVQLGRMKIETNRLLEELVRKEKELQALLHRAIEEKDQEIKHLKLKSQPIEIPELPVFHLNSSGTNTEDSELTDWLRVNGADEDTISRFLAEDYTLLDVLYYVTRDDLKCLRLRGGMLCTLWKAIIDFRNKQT

[15] = tested on: ALK tyrosine kinase receptor (Homo sapiens), Q9UM73 [C1156Y]; assay: (§2) Selectivity interaction (Ambit KINOMEscan and KiNATiv profiling in Jurkat cells) EUB0000090b ALK; format: cell-based; conditions: at 1 µM
Sequence of ALK tyrosine kinase receptor (Homo sapiens), Q9UM73 [C1156Y] (Q9UM73 whole entry C1156Y, looked up): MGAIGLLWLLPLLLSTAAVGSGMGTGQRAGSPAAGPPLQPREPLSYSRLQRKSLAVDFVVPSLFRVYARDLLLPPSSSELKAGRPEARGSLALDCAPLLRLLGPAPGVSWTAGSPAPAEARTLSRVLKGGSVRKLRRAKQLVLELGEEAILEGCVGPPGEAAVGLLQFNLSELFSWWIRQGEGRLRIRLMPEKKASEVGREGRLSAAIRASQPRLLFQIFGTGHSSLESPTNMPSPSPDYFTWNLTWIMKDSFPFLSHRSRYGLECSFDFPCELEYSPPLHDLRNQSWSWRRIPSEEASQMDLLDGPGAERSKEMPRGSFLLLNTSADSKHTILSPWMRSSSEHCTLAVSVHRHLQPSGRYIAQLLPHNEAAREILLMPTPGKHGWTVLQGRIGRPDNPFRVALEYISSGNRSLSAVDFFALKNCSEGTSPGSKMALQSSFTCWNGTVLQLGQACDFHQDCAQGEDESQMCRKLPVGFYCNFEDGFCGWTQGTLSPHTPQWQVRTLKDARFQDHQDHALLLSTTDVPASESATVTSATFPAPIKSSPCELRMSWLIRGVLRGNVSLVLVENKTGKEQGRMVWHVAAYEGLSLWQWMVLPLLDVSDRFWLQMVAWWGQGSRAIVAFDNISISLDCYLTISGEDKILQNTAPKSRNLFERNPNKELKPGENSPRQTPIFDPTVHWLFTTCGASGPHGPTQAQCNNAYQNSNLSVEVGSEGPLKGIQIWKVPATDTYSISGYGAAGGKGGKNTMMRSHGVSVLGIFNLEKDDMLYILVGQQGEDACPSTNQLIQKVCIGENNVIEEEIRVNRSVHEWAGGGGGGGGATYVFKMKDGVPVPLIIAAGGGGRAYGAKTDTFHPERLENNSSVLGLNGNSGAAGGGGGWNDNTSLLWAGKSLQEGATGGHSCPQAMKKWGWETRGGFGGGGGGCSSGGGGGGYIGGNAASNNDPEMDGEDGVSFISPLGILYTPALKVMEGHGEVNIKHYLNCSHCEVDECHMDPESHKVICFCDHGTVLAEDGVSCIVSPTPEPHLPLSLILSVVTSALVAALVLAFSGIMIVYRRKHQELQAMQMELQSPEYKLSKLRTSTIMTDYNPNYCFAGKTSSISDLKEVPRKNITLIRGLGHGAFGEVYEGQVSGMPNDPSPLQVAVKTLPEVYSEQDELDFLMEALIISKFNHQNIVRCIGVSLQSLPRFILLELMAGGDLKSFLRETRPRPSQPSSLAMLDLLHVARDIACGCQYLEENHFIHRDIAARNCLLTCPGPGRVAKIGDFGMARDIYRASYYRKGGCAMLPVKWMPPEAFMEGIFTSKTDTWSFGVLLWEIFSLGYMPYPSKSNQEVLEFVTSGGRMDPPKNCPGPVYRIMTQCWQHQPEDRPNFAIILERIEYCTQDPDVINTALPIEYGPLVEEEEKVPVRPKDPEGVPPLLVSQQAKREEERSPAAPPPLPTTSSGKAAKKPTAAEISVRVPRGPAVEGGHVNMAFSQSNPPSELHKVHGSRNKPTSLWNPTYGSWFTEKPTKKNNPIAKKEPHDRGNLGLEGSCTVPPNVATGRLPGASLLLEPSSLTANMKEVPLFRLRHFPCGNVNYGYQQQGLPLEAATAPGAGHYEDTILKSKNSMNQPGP

[16] = molecular target: ALK tyrosine kinase receptor (Homo sapiens, UniProt Q9UM73); assay: as §2; format: cell-based; conditions: at 1 µM
Sequence of ALK tyrosine kinase receptor (Q9UM73 19-1620 limits assumed): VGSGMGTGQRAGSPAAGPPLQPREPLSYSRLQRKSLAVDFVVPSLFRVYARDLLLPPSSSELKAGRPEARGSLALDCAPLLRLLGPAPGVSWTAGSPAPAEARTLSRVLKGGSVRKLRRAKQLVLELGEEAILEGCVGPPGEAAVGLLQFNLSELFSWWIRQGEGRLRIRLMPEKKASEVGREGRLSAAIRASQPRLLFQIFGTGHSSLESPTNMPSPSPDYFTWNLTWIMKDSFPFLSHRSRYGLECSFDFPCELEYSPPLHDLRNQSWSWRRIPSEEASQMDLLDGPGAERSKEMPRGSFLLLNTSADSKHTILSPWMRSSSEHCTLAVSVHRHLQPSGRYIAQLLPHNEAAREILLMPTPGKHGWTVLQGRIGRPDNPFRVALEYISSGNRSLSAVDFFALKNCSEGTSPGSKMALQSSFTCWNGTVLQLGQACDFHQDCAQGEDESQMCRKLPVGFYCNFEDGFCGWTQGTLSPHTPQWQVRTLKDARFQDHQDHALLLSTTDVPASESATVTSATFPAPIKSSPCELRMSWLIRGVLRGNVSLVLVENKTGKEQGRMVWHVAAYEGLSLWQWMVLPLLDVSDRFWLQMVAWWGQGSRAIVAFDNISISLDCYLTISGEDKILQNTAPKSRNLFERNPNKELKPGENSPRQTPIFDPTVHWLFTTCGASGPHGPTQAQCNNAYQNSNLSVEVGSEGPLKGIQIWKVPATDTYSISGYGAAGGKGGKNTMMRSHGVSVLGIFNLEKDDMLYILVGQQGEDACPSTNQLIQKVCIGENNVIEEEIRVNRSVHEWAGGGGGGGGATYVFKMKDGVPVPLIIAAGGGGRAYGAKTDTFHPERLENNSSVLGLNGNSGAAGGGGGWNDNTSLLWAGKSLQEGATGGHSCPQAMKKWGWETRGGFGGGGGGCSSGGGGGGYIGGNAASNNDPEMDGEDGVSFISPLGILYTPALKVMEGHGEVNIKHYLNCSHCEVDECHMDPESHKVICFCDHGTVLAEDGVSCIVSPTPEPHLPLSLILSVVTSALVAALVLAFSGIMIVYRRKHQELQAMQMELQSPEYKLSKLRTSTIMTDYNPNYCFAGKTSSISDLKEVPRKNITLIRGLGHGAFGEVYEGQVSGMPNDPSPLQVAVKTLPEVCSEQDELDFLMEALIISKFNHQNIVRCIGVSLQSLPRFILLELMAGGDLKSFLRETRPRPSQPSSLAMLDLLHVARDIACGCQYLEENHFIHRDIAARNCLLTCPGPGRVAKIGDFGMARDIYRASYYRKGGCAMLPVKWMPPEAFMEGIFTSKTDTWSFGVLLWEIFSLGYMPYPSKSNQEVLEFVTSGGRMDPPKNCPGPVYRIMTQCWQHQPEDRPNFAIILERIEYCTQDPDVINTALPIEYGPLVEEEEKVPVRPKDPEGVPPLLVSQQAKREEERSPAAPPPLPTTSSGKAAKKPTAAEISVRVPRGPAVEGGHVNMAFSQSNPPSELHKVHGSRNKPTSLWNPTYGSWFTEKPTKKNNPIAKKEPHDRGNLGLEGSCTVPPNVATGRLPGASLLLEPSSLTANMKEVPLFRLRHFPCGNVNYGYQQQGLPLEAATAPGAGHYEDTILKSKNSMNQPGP

[17] = tested on: ALK tyrosine kinase receptor (Homo sapiens), Q9UM73 [L1196M]; assay: as §2; format: cell-based; conditions: at 1 µM
Sequence of ALK tyrosine kinase receptor (Homo sapiens), Q9UM73 [L1196M] (Q9UM73 whole entry L1196M, looked up): as the sequence (Q9UM73 whole entry C1156Y, looked up) above, with Y1156C, L1196M counted along it

Sequence of Tyrosine-protein kinase FRK (Homo sapiens) (P42685 whole entry): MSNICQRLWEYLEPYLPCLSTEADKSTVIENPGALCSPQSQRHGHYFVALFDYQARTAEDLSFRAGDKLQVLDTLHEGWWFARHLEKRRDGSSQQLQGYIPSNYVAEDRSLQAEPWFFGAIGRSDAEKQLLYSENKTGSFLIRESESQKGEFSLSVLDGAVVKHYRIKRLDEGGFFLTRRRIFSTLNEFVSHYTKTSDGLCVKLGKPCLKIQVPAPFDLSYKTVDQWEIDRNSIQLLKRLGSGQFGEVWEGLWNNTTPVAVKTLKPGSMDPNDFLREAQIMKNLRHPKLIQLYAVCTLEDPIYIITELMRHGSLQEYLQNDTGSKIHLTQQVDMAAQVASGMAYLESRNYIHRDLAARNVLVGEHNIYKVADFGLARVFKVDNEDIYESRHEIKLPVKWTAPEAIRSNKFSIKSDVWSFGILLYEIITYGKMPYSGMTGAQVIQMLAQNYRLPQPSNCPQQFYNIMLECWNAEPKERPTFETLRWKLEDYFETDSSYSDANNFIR

## COc1cc(N(C)c2ccnc3ccc(C(F)(F)F)cc23)cc(OC)c1OC
[1]
  % binding: 95%

## Cc1cc([C@@H](C)Nc2ccccc2C(=O)O)c2nc(N3CCOCC3)cc(=O)n2c1 [AZD-6482]
[2]
  % of control: 95%

## N#Cc1cccc(-c2c[nH]c3ncnc(N4CCOCC4)c23)c1
[3]
  % of inhibition: -55%

## CNC(=O)Nc1ccc(-c2nc(N3CC4CCC(C3)O4)c3cnn(C4CCC5(CC4)OCCO5)c3n2)cc1
[4]
  % of control: 100%
[5]
  % of control: 100%
[6]
  % of control: 100%
[7]
  % of control: 100%
[8]
  % of control: 100%
[9]
  % of control: 100%
[10]
  % of control: 83%
[11]
  % of control: 99%
[12]
  % of control: 100%

## CC[C@@H]1[C@H](F)C(=O)N[C@@H]1COc1nccc2cc(C(N)=O)c(OC)cc12 [ZIMLOVISERTIB]
[13]; at 0.01 µM
  % of inhibition: -7.8%
[13]; at 0.04 µM
  % of inhibition: -35.7%
[13]; at 0.2 µM
  % of inhibition: -16.6%
[13]; at 1 µM
  % of inhibition: -3.6%
[13]; at 5 µM
  % of inhibition: -19.3%
[14]; at 0.01 µM
  % of inhibition: -12.1%
[14]; at 0.04 µM
  % of inhibition: -3.2%
[14]; at 0.2 µM
  % of inhibition: 0%
[14]; at 1 µM
  % of inhibition: -6.5%
[14]; at 5 µM
  % of inhibition: -21.9%

## CN(C)C/C=C/C(=O)Nc1ccc(C(=O)N2CCCC(Nc3ncc(Cl)c(-c4c[nH]c5ccccc45)n3)C2)cc1 (stereo not given)
[15]
  % of control: 100%
[16]
  % of control: 86%
[17]
  % of control: 99%
